In patent publication US11724992B2 (Novartis AG, priority 2017, dated 2023):

These compounds were tested on IL-1β production in PMA-differentiated THP-1 cells (assay: IL-1β production in PMA-differentiated THP-1 cells stimulated with gramicidin (hTHP-1 assay, 2% fetal bovine serum; Procedures 1-3)). Details: hTHP-1 assay containing 2% fetal bovine serum; class symbols; read-out: hTHP-1 IC50 (Average IC50 of compounds in hTHP-1 assay).
Type: cell-based, human
Protocol: The following protocol is suitable for testing the activity of the compounds disclosed herein.
Procedure 1: IL-1β Production in PMA-Differentiated THP-1 Cells Stimulated with Gramicidin
THP-1 cells were purchased from the American Type Culture Collection and sub-cultured according to instructions from the supplier. Cells were cultured in complete RPMI 1640 (containing 10% heat inactivated FBS, penicillin (100 units/ml) and streptomycin (100 μg/ml)), and maintained in log phase prior to experimental setup. Prior to the experiment, compounds were dissolved in dimethyl sulfoxide (DMSO) to generate a 30 mM stock. The compound stock was first pre-diluted in DMSO to 3, 0.34, 0.042 and 0.0083 mM intermediate concentrations and subsequently spotted using Echo550 liquid handler into an empty 384-well assay plate to achieve desired final concentration (e.g. 100, 33, 11, 3.7, 1.2, 0.41, 0.14, 0.046, 0.015, 0.0051, 0.0017 μM). DMSO was backfilled in the plate to achieve a final DMSO assay concentration of 0.37%. The plate was then sealed and stored at room temperature until required.
THP-1 cells were treated with PMA (Phorbol 12-myristate 13-acetate) (20 ng/ml) for 16-18 hours. On the day of the experiment the media was removed and adherent cells were detached with trypsin for 5 minutes. Cells were then harvested, washed with complete RPMI 1640, spun down, and resuspended in RPMI 1640 (containing 2% heat inactivated FBS, penicillin (100 units/ml) and streptomycin (100 μg/ml). The cells were plated in the 384-well assay plate containing the spotted compounds at a density of 50,000 cells/well (final assay volume 50 μl). Cells were incubated with compounds for 1 hour and then stimulated with gramicidin (5 μM) (Enzo) for 2 hours. Plates were then centrifuged at 340 g for 5 min. Cell free supernatant (40 μL) was collected using a 96-channel PlateMaster (Gilson) and the production of IL-1β was evaluated by HTRF (cisbio). The plates were incubated for 18 h at 4° C. and read using the preset HTRF program (donor emission at 620 nm, acceptor emission at 668 nm) of the SpectraMax i3x spectrophotometer (Molecular Devices, software SoftMax 6). A vehicle only control and a dose titration of CRID3 (100-0.0017 μM) were run concurrently with each experiment.
Procedure 2: IL-1β Production in PMA-Differentiated THP-1 Cells Stimulated with Gramicidin
THP-1 cells were purchased from the American Type Culture Collection and sub-cultured according to instructions from the supplier. Prior to experiments, cells were cultured in complete RPMI 1640 (containing 10% heat inactivated FBS, penicillin (100 units/ml) and streptomycin (100 μg/ml)), and maintained in log phase prior to experimental setup. Prior to the experiment THP-1 were treated with PMA (Phorbol 12-myristate 13-acetate) (20 ng/ml) for 16-18 hours. Compounds were dissolved in dimethyl sulfoxide (DMSO) to generate a 30 mM stock. On the day of the experiment the media was removed and adherent cells were detached with trypsin for 5 minutes. Cells were then harvested, washed with complete RPMI 1640, spun down, resuspended in RPMI 1640 (containing 2% heat inactivated FBS, penicillin (100 units/ml) and streptomycin (100 μg/ml). The cells were plated in a 384-well plate at a density of 50,000 cells/well (final assay volume 50 μl). Compounds were first dissolved in assay medium to obtain a 5× top concentration of 500 μM. 10 step dilutions (1:3) were then undertaken in assay medium containing 1.67% DMSO. 5× compound solutions were added to the culture medium to achieve desired final concentration (e.g. 100, 33, 11, 3.7, 1.2, 0.41, 0.14, 0.046, 0.015, 0.0051, […]). Final DMSO concentration was at 0.37%. Cells were incubated with compounds for 1 hour and then stimulated with gramicidin (5 μM) (Enzo) for 2 hours. Plates were then centrifuged at 340 g for 5 min. Cell free supernatant (40 μL) was collected using a 96-channel PlateMaster (Gilson) and the production of IL-1β was evaluated by HTRF (cisbio). […]

IC50 | SMILES
8 to 40 nM | Cc1oc(S(N)(=O)=NC(=O)Nc2c(C(C)C)cc(F)cc2C(C)C)cc1C(C)(C)O (single isomer, unassigned) [Example 79]
200 to 1000 nM | Cc1oc(S(N)(=O)=NC(=O)Nc2c(C(C)C)cc(F)cc2C(C)C)cc1C(C)(C)O (single isomer, unassigned) [Example 80]
8 to 40 nM | Cc1oc(S(N)(=O)=NC(=O)Nc2c(C(C)C)cc(C#N)c(F)c2C(C)C)cc1C(C)(C)O (single isomer, unassigned) [Example 81]
200 to 1000 nM | Cc1oc(S(N)(=O)=NC(=O)Nc2c(C(C)C)cc(C#N)c(F)c2C(C)C)cc1C(C)(C)O (single isomer, unassigned) [Example 82]
8 to 40 nM | Cc1sc(S(N)(=O)=NC(=O)Nc2c3c(cc4c2CCC4)CCC3)cc1C(C)(C)O (single isomer, unassigned) [Example 85]
200 to 1000 nM | Cc1sc(S(N)(=O)=NC(=O)Nc2c3c(cc4c2CCC4)CCC3)cc1C(C)(C)O (single isomer, unassigned) [Example 86]
40 to 200 nM | CC(C)(O)c1ccc(S(N)(=O)=NC(=O)Nc2c3c(cc4c2CCC4)CCC3)c(F)c1 (single isomer, unassigned) [Example 87]
1000 to 5000 nM | CC(C)(O)c1ccc(S(N)(=O)=NC(=O)Nc2c3c(cc4c2CCC4)CCC3)c(F)c1 (single isomer, unassigned) [Example 88]
8 to 40 nM | CC(C)(O)c1csc(S(N)(=O)=NC(=O)Nc2c3c(c(Cl)c4c2CCC4)CCC3)c1 (single isomer, unassigned) [Example 89]
200 to 1000 nM | CC(C)(O)c1csc(S(N)(=O)=NC(=O)Nc2c3c(c(Cl)c4c2CCC4)CCC3)c1 (single isomer, unassigned) [Example 90]
40 to 200 nM | CC(C)c1cc(C#N)c(F)c(C(C)C)c1NC(=O)N=S(N)(=O)c1cnc(C(C)(C)O)s1 (single isomer, unassigned) [Example 91]
1000 to 5000 nM | CC(C)c1cc(C#N)c(F)c(C(C)C)c1NC(=O)N=S(N)(=O)c1cnc(C(C)(C)O)s1 (single isomer, unassigned) [Example 92]
1000 to 5000 nM | CC(C)n1ccc(S(N)(=O)=NC(=O)Nc2c3c(cc4c2CCC4)CCC3)n1 (single isomer, unassigned) [Example 94]
< 8 nM | CC(C)c1cc(OC(F)F)cc(C(C)C)c1NC(=O)N=S(N)(=O)c1sc(C(C)(C)O)cc1F (single isomer, unassigned) [Example 95]
200 to 1000 nM | CC(C)c1cc(OC(F)F)cc(C(C)C)c1NC(=O)N=S(N)(=O)c1sc(C(C)(C)O)cc1F (single isomer, unassigned) [Example 96]
40 to 200 nM | CCc1cc(OC(F)F)cc(C(C)C)c1NC(=O)N=S(N)(=O)c1cnc(C(C)(C)O)s1 (single isomer, unassigned) [Example 97]
5000 to 30000 nM | CCc1cc(OC(F)F)cc(C(C)C)c1NC(=O)N=S(N)(=O)c1cnc(C(C)(C)O)s1 (single isomer, unassigned) [Example 98]
200 to 1000 nM | Cc1cc(C(C)(C)O)ccc1S(N)(=O)=NC(=O)Nc1c2c(cc3c1CCC3)CCC2 (single isomer, unassigned) [Example 99]
5000 to 30000 nM | Cc1cc(C(C)(C)O)ccc1S(N)(=O)=NC(=O)Nc1c2c(cc3c1CCC3)CCC2 (single isomer, unassigned) [Example 100]
40 to 200 nM | CC(C)c1cc(OC(F)F)cc(C2CC2)c1NC(=O)N=S(N)(=O)c1cnc(C(C)(C)O)s1 (single isomer, unassigned) [Example 101]
1000 to 5000 nM | CC(C)c1cc(OC(F)F)cc(C2CC2)c1NC(=O)N=S(N)(=O)c1cnc(C(C)(C)O)s1 (single isomer, unassigned) [Example 102]
40 to 200 nM | CC(C)c1cc(F)cc(C(C)C)c1NC(=O)N=S(N)(=O)c1cnc(C(C)(C)O)s1 (single isomer, unassigned) [Example 103]

IC50 | SMILES
1000 to 5000 nM | CC(C)c1cc(F)cc(C(C)C)c1NC(=O)N=S(N)(=O)c1cnc(C(C)(C)O)s1 (single isomer, unassigned) [Example 104]
200 to 1000 nM | CC(C)c1cc(F)cc(C(C)C)c1NC(=O)N=S(N)(=O)c1cccc(C(C)(C)O)c1 (single isomer, unassigned) [Example 105]
5000 to 30000 nM | CC(C)c1cc(F)cc(C(C)C)c1NC(=O)N=S(N)(=O)c1cccc(C(C)(C)O)c1 (single isomer, unassigned) [Example 106]
5000 to 30000 nM | CC(C)c1c(F)c(C#N)cc(C2CC2)c1NC(=O)N=S(N)(=O)c1cnc(C(C)(C)O)s1 (single isomer, unassigned) [Example 107]
40 to 200 nM | CC(C)c1c(F)c(C#N)cc(C2CC2)c1NC(=O)N=S(N)(=O)c1cnc(C(C)(C)O)s1 (single isomer, unassigned) [Example 108]
40 to 200 nM | CC(C)c1cc(OC(F)F)cc(C(C)C)c1NC(=O)N=S(N)(=O)c1cnc(C(C)(C)O)s1 (single isomer, unassigned) [Example 111]
5000 to 30000 nM | CC(C)c1cc(OC(F)F)cc(C(C)C)c1NC(=O)N=S(N)(=O)c1cnc(C(C)(C)O)s1 (single isomer, unassigned) [Example 112]
8 to 40 nM | CC(C)(O)c1csc(S(N)(=O)=NC(=O)Nc2c3c(c(C#N)c4c2CCC4)CCC3)c1 (single isomer, unassigned) [Example 113]
1000 to 5000 nM | CC(C)(O)c1csc(S(N)(=O)=NC(=O)Nc2c3c(c(C#N)c4c2CCC4)CCC3)c1 (single isomer, unassigned) [Example 114]
1000 to 5000 nM | CC(C)(O)c1ncc(S(N)(=O)=NC(=O)Nc2c3c(c(OC(F)F)c4c2CCC4)CCC3)s1 (single isomer, unassigned) [Example 115]
40 to 200 nM | CC(C)(O)c1ncc(S(N)(=O)=NC(=O)Nc2c3c(c(OC(F)F)c4c2CCC4)CCC3)s1 (single isomer, unassigned) [Example 116]
40 to 200 nM | CN(C)Cc1ccc(S(N)(=O)=NC(=O)Nc2c3c(cc4c2CCC4)CCC3)cc1 (single isomer, unassigned) [Example 117]
1000 to 5000 nM | CN(C)Cc1ccc(S(N)(=O)=NC(=O)Nc2c3c(cc4c2CCC4)CCC3)cc1 (single isomer, unassigned) [Example 118]
8 to 40 nM | CC(C)(O)c1cc(F)c(S(N)(=O)=NC(=O)Nc2c3c(c(F)c4c2CCC4)CCC3)s1 (single isomer, unassigned) [Example 121]
200 to 1000 nM | CC(C)(O)c1cc(F)c(S(N)(=O)=NC(=O)Nc2c3c(c(F)c4c2CCC4)CCC3)s1 (single isomer, unassigned) [Example 122]
40 to 200 nM | Cc1oc(S(N)(=O)=NC(=O)Nc2c3c(cc4c2CCC4C)CCC3)cc1C(C)(C)O (single isomer, unassigned) [Example 123]
1000 to 5000 nM | Cc1oc(S(N)(=O)=NC(=O)Nc2c3c(cc4c2CCC4C)CCC3)cc1C(C)(C)O (single isomer, unassigned) [Example 124]
40 to 200 nM | Cc1oc(S(N)(=O)=NC(=O)Nc2c3c(cc4c2CCC4C)CCC3)cc1C(C)(C)O (single isomer, unassigned) [Example 125]
1000 to 5000 nM | Cc1oc(S(N)(=O)=NC(=O)Nc2c3c(cc4c2C(C)CC4)CCC3)cc1C(C)(C)O (single isomer, unassigned) [Example 126]
200 to 1000 nM | CC(C)(O)c1cccc(S(N)(=O)=NC(=O)Nc2c3c(c(F)c4c2CCC4)CCC3)c1 (single isomer, unassigned) [Example 128]
5000 to 30000 nM | CC(C)(O)c1cccc(S(N)(=O)=NC(=O)Nc2c3c(c(F)c4c2CCC4)CCC3)c1 (single isomer, unassigned) [Example 129]
